The values below are quoted from earlier work in paper PMC10070485, “In silico study of HASDI (high-affinity selective DNA intercalator) as a new agent capable of highly selective recognition of the DNA sequence” (Scientific Reports, 2023).

One data set deals with A-T base pairs. The settings on record: fluorescence titrations.
Data set [1] deals with DNA sequences. On the set-up: method as in PMID 24446378. The note with it: docking, MD, MM-PBSA, MESP.
The test system of data set [2] is DNA sequences. Details: method as in PMID 31820194. The settings on record: MD, MM-PB(GB)SA, DFT.
The test system of data set [3] is DNA sequences of the d(ATGCAT)2 type. On the set-up: method as in PMID 34299405. The note with it: diamine linker in the major groove.

For the molecule neomycin-Hoechst 33258-pyrene conjugate, the “number of A-T base pairs selectively recognized” value with A-T base pairs was “up to 9”. Consider `Cc1cc(-c2nc3cc(F)ccc3s2)ccc1N` [5F], for which the DNA groove specificity result in the data set with DNA sequences [1] is recorded as “affinity only to the minor groove”. Regarding `Nc1cccc2oc(-c3ccccc3)cc(=O)c12` [AMF, 5-aminoflavone], the DNA groove specificity entry in the data set on DNA sequences [1] was “stable in the minor groove of AT-rich DNA and in the major groove of GC-rich DNA”. Take `COc1cccc2c1C(=O)c1c(O)c3c(c(O)c1C2=O)C[C@@](O)(C(C)=O)C[C@@H]3O[C@H]1C[C@H](N)[C@H](O)[C@H](C)O1` [daunomycin]: the DNA sequence specificity result in the data set on DNA sequences [2] is “highest affinity for TC/GA rich sequences”.

In the case of `Cc1cccc2nc3cccc(C(=O)NCCNCCNCCNC(=O)c4cccc5nc6cccc(C)c6nc45)c3nc12` [MLN944], the “DNA sequence type of greatest affinity” value in data set [3] is given as “d(ATGCAT)2”.
